Experimental findings from patent US6881584B1, “Infrared thermography” (SmithKline Beecham Corporation, priority 1998, dated 2005) are described below.

Where only a bound is given, the exact number is not on record here.

Series [1] relates to C3H10T1/2 adipocytes. Put plainly: Lipolysis in adipocytes treated with β-AR-agonists. It counts as cell-based. As to conditions: adipocytes, dose response; read-out: EC50 (nM) Lipolysis. How it is done: (§1) Human subcutaneous adipocytes were purchased from Zen-Bio, Inc. (Research Triangle Park, N.C.). C3H10T1/2 clone 8 fibroblasts were differentiated into adipocytes as previously described (Lenhard et al, Biochem. Pharmacol. 54:801-808 (1997), Paulik and Lenhard, Cell Tissue Res. 290:79-87 (1997)). After 7 days in culture, triglyceride accumulation was determined by adding lipoprotein lipase and GPO-Trinder reagent (assay kit 337-B, Sigma Diagnostics, St. Louis, Mo.) to the cells (50 μl/cm^2) and incubating the lysates at 37° C. for 2 hours. The optical density was measured using a spectrophotometer set at a wavelength of 540 nm. Lipolysis was measured as previously described (Lenhard et al, Biochem. Pharmacol. 54:801-808 (1997)).
(§2) As a control, the effects of β-AR-agonists on lipolysis was also measured. […] In general, this expands to measuring thermogenic activity of both catabolic and anabolic mediated-effects of potential drug candidates.

The subject of series [2] is C3H10T1/2 adipocytes. Put plainly: Infrared thermography of thermogenesis in cultured adipocytes (β-AR-agonists). To be noted: for stimulation of thermogenesis: C3H10T1/2 adipocytes; for EC50: adipocytes, infrared thermography, dose response, read-out: EC50 (nM) Thermogenesis. It counts as cell-based. How it is done:
as §1
Heat generation was measured using a Stirling cooled Agema Thermovision 900 Infrared System AB (Marietta, Ga.) equipped with a SW Scanner and 40°×25° lens which detects a 2-5.4 micron spectral response. […] The focal distance was 6 cm. Images were captured using a recurs function set at 16 or an averaging function set at 32. The data was analyzed using OS-9 advanced systems and ERIKA 2.00 software according to the manufacturer's specifications (FLIR Infrared Systems AB, Danderyd, Sweden). Thermography of adipocytes was performed by maintaining the ambient temperature of the cultured cells at 37±0.02° C. using a Queue Systems Inc. (Parkersburg, W.Va.) incubator, model QWJ500SABA. Spectral analysis of yeast was performed at 30±0.02° C. using the same incubator system. After treating the cells with experimental agents (e.g., rotenone etc.), the temperature was equilibrated for 10 minutes in the incubator before measuring real time thermogenesis for all microtiter plate applications. Various color scales in the visible wavelength were used to depict the temperature fluctuations of the recorded images. Although temperature scales are constant, the color scale images are variable and can be adjusted with level and span controls.
The β3-AR-agonists are candidate therapeutic agents for the treatment of diabetes and obesity. Although, the mechanism of action for these agents is thought to involve increased metabolic rate (Scarpace, Ann. N.Y. Acad. Sci. 813:111-116 (1997)), it has yet to be shown that β-AR-agonists increase heat output by adipocytes. Therefore, it was determined whether infrared imaging could be used to monitor the effects of β-AR-agonists on thermogenesis in cultured adipocytes.
as §2

The test system of another series is intrascapular region. Put plainly: Intrascapular thermogenesis in inbred mouse strains on high and low fat diets. As to conditions: 1 mg/kg i.p., 60 min. It counts as in vivo, mice. How it is done: (§3) Male AKR/J, C57BL/6J, and SWR/J mice were purchased from 4-8 weeks of age from Jackson Laboratories (Bar Harbor, Me.). Mice were fed high and low fats diets containing high sucrose as defined by Surwit et al., (Metabolism 44(5):645-651 (1995)). After 14 weeks on these diets, the intrascapular fur was shaved, the animals were dosed (intraperitineal) with 1 mg/kg of BRL37344, and the animals were anesthetized with isofluorane. Nude mice (BALB/C) were 6-8 weeks old and were dosed with inhalant two times before thermal profiling. The Lewis rat strain (200-250 g) were used for both the MED and inflammation experiments. Infrared thermographic images and temperature calculations were recorded using an Agema Thermovision 900 Infrared System.
One environmental component that alters the metabolic rate in individuals with a genetic predisposition towards diabetes, dyslipidemia, or obesity is diet. It was unknown if thermography could be used to measure the effects of diet on drug-induced changes in heat production in animals with different genotypes. Thus, three different inbred strains of mice, AKR/J, C57BL/6J, and SWR/J, were maintained on high and low fat diets for 14 weeks before treating with the β3-adrenoceptor agonist, BRL37344. The heat produced in the intrascapular region was measured before and after 60 min treatment using infrared thermography. […] Thus, this technique may be used to select, rank order for the efficacy and potency of compounds with the, desired properties for a given environment or genetic background. Similarly, this technique can be used to identify, rank, and select animals and environmental factors with the desired properties for a given drug candidate.

The subject of series [3] is interscapular brown adipose tissue (IBAT). As to the kind of experiment: IBAT thermogenesis in ob/ob mice, shaved or skin replaced with IR transparent adhesive. It counts as in vivo. To be noted: 0.01-1 mg/kg i.g., 1 hour. How it is done: FIG. 28. Interscapular brown adipose tissue (IBAT) thermogenesis in ob/ob mice 1 hour after treatment with the […]-adrenoceptor agonist BRL37344 detected by IR thermography. Ten week old male ob/ob mice (Jackson Labs, Bar Harbor, Me.) were housed 5 animals/cage at 72° F. and 50% relative humidity with a 12 h light and dark cycle. They were fed chow diet (NIH R&M/Auto 6F-Ovals 5K67, PMI Feeds® Inc., Richmond, Ind.) and water ad libitum. Mice were dosed at 0.0, 0.01, 0.1, 0.3, or 1 mg/kg BRL37344 in water vehicle (0.25 mL i.g.; n=20 per dose). All animals were anesthetized with isofluorane and shaved to expose the area of interest prior to IR scanning. […] Images were recorded at 1 min intervals for 5 min with a frame averaging rate of 32 frames/sec. Acquired images were analyzed for average temperatures using an in-house image processing software application (Roboimage). Data are expressed as either average temperature/area or delta temperature/area (drug treated-vehicle treated).
The top panels show IR images of the interscapular regions of mice whose skin was removed and Bioclusive adhesive covering placed over the IBAT or mice who have been shaved only following treatment with BRL37344 at the doses indicated for 1 hour. Quantification of IR signal in the IBAT region is shown in the bottom panel. […]

The test system of the next series is limb inflammation. Put plainly: PGPS arthritis model, limb thermogenesis. It counts as in vivo, rat. How it is done: as §3
Arthritis is a disease characterized by inflammation of the joints and can be treated with antiinflammatory agents. Because inflammatory responses are associated with increased thermogenesis at the site of the response, arthritis and the efficacy of arthritis drugs can be monitored by thermography. […] The other limb was not treated. […] Thus, infrared thermography is a useful tool for monitoring inflammatory responses and the efficacy of antiinflammatory agents as well as providing a method for screening, selecting and evaluating the effectiveness of drug candidates for treating arthritic indications.

Another series relates to C3H10T1/2 cells. Put plainly: Infrared thermography of heat production in differentiating C3H10T1/2 cells (PPARγ agonists). It counts as cell-based. As to conditions: Mus musculus, C3H 10T1/2, in the presence of insulin and 9-cis retinoic acid (FIG. 7), read-out: EC50(μM), thermogenesis and lipogenesis assays. How it is done: as §1
Heat generation was measured using a Stirling cooled Agema Thermovision 900 Infrared System AB (Marietta, Ga.) equipped with a SW Scanner and 40°×25° lens which detects a 2-5.4 micron spectral response. […] The focal distance was 6 cm. Images were captured using a recurs function set at 16 or an averaging function set at 32. The data was analyzed using OS-9 advanced systems and ERIKA 2.00 software according to the manufacturer's specifications (FLIR Infrared Systems AB, Danderyd, Sweden). […] Various color scales in the visible wavelength were used to depict the temperature fluctuations of the recorded images. […]

In the next series the test system is whole back. As to the kind of experiment: Infrared thermography of drug-induced thermogenesis in humans. To be noted: 60 minutes after 0.6-0.7 mg/kg. It counts as in vivo, human. How it is done:
The effect of ephedrine on thermogenesis in two human subjects was detected by infrared Imaging 60 minutes after treatment with ephedrine at a dose of 0.6-0.7 mg/kg. […] Thus, infrared thermography can be used as a non-invasive surrogate assay to evaluate the efficacy, potency, pharmacokinetics, pharmocodynamics of drugs in clinical studies.

Another series relates to human adipocytes. As to the kind of experiment: Infrared thermography of human adipocytes in 96-well plates. It counts as cell-based. As to conditions: dose response, relative to untreated cells.
The test system of another series is yeast. It counts as cell-based.

Experimental for human adipocytes: Heat generation was measured using a Stirling cooled Agema Thermovision 900 Infrared System AB (Marietta, Ga.) equipped with a SW Scanner and 40°×25° lens which detects a 2-5.4 micron spectral response. […] The focal distance was 6 cm. Images were captured using a recurs function set at 16 or an averaging function set at 32. The data was analyzed using OS-9 advanced systems and ERIKA 2.00 software according to the manufacturer's specifications (FLIR Infrared Systems AB, Danderyd, Sweden). Thermography of adipocytes was performed by maintaining the ambient temperature of the cultured cells at 37±0.02° C. using a Queue Systems Inc. (Parkersburg, W.Va.) incubator, model QWJ500SABA. […] After treating the cells with experimental agents (e.g., rotenone etc.), the temperature was equilibrated for 10 minutes in the incubator before measuring real time thermogenesis for all microtiter plate applications. Various color scales in the visible wavelength were used to depict the temperature fluctuations of the recorded images. Although temperature scales are constant, the color scale images are variable and can be adjusted with level and span controls.
Experimental for yeast: Heat generation was measured using a Stirling cooled Agema Thermovision 900 Infrared System AB (Marietta, Ga.) equipped with a SW Scanner and 40°×25° lens which detects a 2-5.4 micron spectral response. […] The focal distance was 6 cm. Images were captured using a recurs function set at 16 or an averaging function set at 32. The data was analyzed using OS-9 advanced systems and ERIKA 2.00 software according to the manufacturer's specifications (FLIR Infrared Systems AB, Danderyd, Sweden). […] Spectral analysis of yeast was performed at 30±0.02° C. using the same incubator system. After treating the cells with experimental agents (e.g., rotenone etc.), the temperature was equilibrated for 10 minutes in the incubator before measuring real time thermogenesis for all microtiter plate applications. Various color scales in the visible wavelength were used to depict the temperature fluctuations of the recorded images. Although temperature scales are constant, the color scale images are variable and can be adjusted with level and span controls.

In general, EC50 refers to the midpoint of the concentration-response curve. For the molecule `C[C@H](Cc1ccc2c(c1)OC(C(=O)[O-])(C(=O)[O-])O2)NC[C@H](O)c1cccc(Cl)c1.[Na+].[Na+]` [CL316253], the EC50 in the series on C3H10T1/2 adipocytes [1] was determined as 7.9 nM. For the same molecule, in the series with C3H10T1/2 adipocytes [2] (15 min vs 18 hours treatment), the “thermogenesis versus treatment time” value was “greater after 15 min than after 18 hours”. Also, in the series on C3H10T1/2 adipocytes [2], the stimulation of thermogenesis entry is “stimulated” and the EC50 came to 8.9 nM. Moreover, the “dose dependence of thermogenic effect” value with C3H10T1/2 adipocytes [2] (dose range 0.8-100 nM) was “dose dependent thermogenic effect”.

For `C[C@H](Cc1ccc(OCC(=O)O)cc1)NC[C@H](O)c1cccc(Cl)c1` [BRL37344], the results for the “thermogenic response, high vs low fat diet” value in the series with intrascapular region (AKR/J mice (obesity prone)), in the series on intrascapular region (C57BL/6J mice) and with intrascapular region (SWR/J mice (obesity resistant)) were “greater thermogenic response to BRL37344 when fed the higher fat diet”, “little difference in the thermogenic response” and “greater thermogenic response when fed the lower fat diet”, respectively. Moreover, the IBAT thermogenesis entry in series [3] (shaved only) is recorded as “thermogenesis increased”; in series [3] (skin removed (peelback) and Bioclusive adhesive), “demonstrate a dose-response”.

On to peptidoglycan polysaccharide [PGPS], for which the “thermogenesis of injected limb vs untreated limb” value in the series with limb inflammation (limb injected for two weeks) is recorded as “higher level of thermogenesis in the treated limb than in the untreated limb”.

Consider `O=C1NC(=O)C(Cc2ccc3c(c2)CC[C@H](Cc2ccccc2)O3)S1` (stereo partly shown) [englitazone], for which the EC50 in the series with C3H10T1/2 cells is above 10 µM.

As for `COc1ccc(CCNCC(O)COc2ccc(O)c(O)c2)cc1OC` (stereo not shown) [RO363], the EC50 in the series with C3H10T1/2 adipocytes [1] came out at 1000 nM. In the series on C3H10T1/2 adipocytes [2], the stimulation of thermogenesis result was “less effective than CL316243 or isoproterenol” and the EC50 worked out at 956 nM.

For the molecule `C[C@]12C=CC(=O)C=C1CC[C@@H]1[C@@H]2[C@@H](O)C[C@@]2(C)[C@H]1CC[C@]2(O)C(=O)CO` [prednisolone], in the series on limb inflammation (PGPS arthritis model, 6 mg/kg p.o.), the “thermogenesis of arthritic limb after treatment” value was “reverses the elevation in thermogenesis”.

`C[C@@H]1C[C@@H]([C@H](O)CC2CC(=O)NC(=O)C2)C(=O)[C@@H](C)C1` [cycloheximide]: the “effect on β3-AR-mediated thermogenesis” value with C3H10T1/2 adipocytes [2] (100 μM) is listed as “had no effect”.

For `CN[C@@H](C)[C@H](O)c1ccccc1` [ephedrine], the figures for the “Delta T” value in the series with whole back (subject A) and in the series with whole back (subject B) were 0.63 °C and 0.46 °C, respectively.

On to `N#CC(C#N)=NNc1ccc(OC(F)(F)F)cc1` [FCCP, carbonyl cyanide p-(trifluoromethoxy)phenylhydrazone], for which the “thermogenesis in human adipocytes” value in the series on human adipocytes was “stimulated heat production”. The thermogenesis in yeast result with yeast was “stimulated heat production”.

In the case of `CC[C@H]1/C=C/C=C/C[C@@H](C)[C@H](O)[C@@](C)(O)C(=O)[C@@H](C)[C@H](O)[C@@H](C)C(=O)[C@@H](C)[C@H](O)[C@@H](C)/C=C/C(=O)O[C@@H]2[C@H](C)[C@H](CC1)O[C@]1(CC[C@H](C)[C@H](C[C@@H](C)O)O1)[C@H]2C` [Oligomycin], the EC50 in the series with C3H10T1/2 adipocytes [2] (Mus musculus, C3H 10T1/2) stood at 9.2 nM.
